Data set [1] addresses T1, human CaV3.1 (Homo sapiens, UniProt O43497).
T1 construct: expressed in transfected cells; host or cells: HEK 293 T cells, transient transfection (FuGENE HD)
As to the kind of experiment: T-type calcium channel window current FLIPR assay, CaV3.1. The format is cell-based. The settings on record: n = 3, read-out: IC50 CaV3.1 (LVA CaVs). The protocol:
(§1) The human embryonic kidney 293 (HEK 293) cell lines (from Emmanuel Bourinet, Montpellier, France) stably expressing CaV3.2 or CaV3.3 were cultured under 5% carbon dioxide at 37 °C in Dulbecco’s Modified Eagle Medium (DMEM) Glutamax (Gibco, Life Technologies, Carlsbad, CA, USA) supplemented with 10% (v/v) fetal bovine serum (FBS), 100 U/mL penicillin, 100 μg/mL streptomycin (Gibco, Life Technologies, Carlsbad, CA, USA), and 750 μg/mL geneticin (G418) (Gibco, Life Technologies). The Chinese Hamster Ovary (CHO) cell lines (Emmanuel Bourinet, Montpellier, France) expressing CaV3.1 were cultured under 5% carbon dioxide at 37 °C in Alpha Minimum Essential Media (MEM) Glutamax (Gibco, Life Technologies), supplemented with 10% (v/v) fetal bovine serum (FBS) and 300 μg/mL geneticin (G418) (Gibco, Life Technologies). The human neuroblastoma SH-SY5Y cells (Victor Diaz, Goettingen, Germany) were cultured under 5% carbon dioxide at 37 °C in RPMI 1640 antibiotic-free medium (Invitrogen, Carlsbad, CA, USA), supplemented with 15% FBS and 2 mM GlutaMAX™ (Invitrogen). D-PBS (Gibco, Life Technologies) was used to wash the cells, and 0.25% Trypsin-EDTA (Gibco, Life Technologies) was used to detach cells from the flask surface. They were split in a ratio of 1:5 (ideally 1000 cells/cm^2) when they reached 70–80% confluence (every 2–3 days). Transiently transfected CaV3.1 HEK293 T cells were used in FLIPR Assays. HEK 293 T cells were cultured under 5% carbon dioxide at 37 °C in DMEM supplemented with 10% (v/v) FBS. D-PBS was used to wash the cells, and 0.25% Trypsin-EDTA was used to detach cells from the flask surface. The cells were split and seeded at 6 million cells per T175 flask, to reach 70–80% confluence after 24 h. The next day, 12 μg DNA of human CaV3.1 was incubated in 900 μL serum-free DMEM with 36 μL FuGENE HD transfection reagent (Promega Corporation, Madison, WI, USA) (1:3 DNA/Fugene ratio) for 20 min, and then the mixture was added into the cell flask slowly, drop by drop. After the transfection, the cells were cultured under 5% carbon dioxide at 37 °C for 24 h and then moved to a 28 °C incubator.
(§2) HEK 293 cells stably expressing CaV3.2 or CaV3.3 were seeded into 384-well black wall clear bottom plates (Corning) at a density of 30,000 cells per well. Transiently transfected CaV3.1HEK293 T cells were seeded into 384-well black wall clear bottom plates at a density of 60,000 cells per well. Once the cells reached 90–95% confluence after 24 h, the media were removed from the wells and replaced with 20 μL of 10% calcium 4 dye (Molecular Devices, Sunnyvale, CA, USA) in HBSS-HEPES (containing 5 mM KCl, 10 mM HEPES, 140 mM NaCl, 10 mM glucose, and 0.5 mM CaCl2, pH 7.4) with 0.1% bovine serum albumin (BSA). The cells were incubated for 30 min at 37 °C in the presence of 5% carbon dioxide. Each well on the reagent plates for the first addition contained 15 μL different concentrations of compounds dissolved in HBSS-HEPES containing 0.1% BSA and <0.5% DMSO and was incubated for 20 min after loaded. Positive and negative controls contained 15 μL of HBSS-HEPES (0.1% BSA) alone. The plates were placed in the FLIPR^TETRA (Molecular Devices, Sunnyvale, CA, USA) programmed to measure maximum fluorescence intensity following a second addition of the agonist 5 mM CaCl2. The fluorescence readings were recorded and converted as described previously, and HBSS-HEPES (0.1% BSA) was used in the second addition as a negative control.

For data set [2], the target named is CaV3.2 (Homo sapiens, UniProt O95180). The data set can be described thus: T-type calcium channel window current FLIPR assay, CaV3.2. The conditions noted are these: FLIPR window current, n = 3; read-out: IC50 CaV3.2 (LVA CaVs). In kind it is cell-based. The method, then: as §1, §2
The target of data set [3] is CaV3.3 (Homo sapiens, UniProt Q9P0X4). The data set can be described thus: T-type calcium channel window current FLIPR assay, CaV3.3. In kind it is cell-based. The conditions noted are these: FLIPR window current; for IC50: n = 3, read-out: IC50 CaV3.3 (LVA CaVs). The protocol:
as §1, §2

Data set [4] deals with T2, CaV2.2 (Homo sapiens, UniProt Q00975).
T2 construct: endogenous in cells; host or cells: SH-SY5Y human neuroblastoma cells
T2 sequence (Q00975 whole entry): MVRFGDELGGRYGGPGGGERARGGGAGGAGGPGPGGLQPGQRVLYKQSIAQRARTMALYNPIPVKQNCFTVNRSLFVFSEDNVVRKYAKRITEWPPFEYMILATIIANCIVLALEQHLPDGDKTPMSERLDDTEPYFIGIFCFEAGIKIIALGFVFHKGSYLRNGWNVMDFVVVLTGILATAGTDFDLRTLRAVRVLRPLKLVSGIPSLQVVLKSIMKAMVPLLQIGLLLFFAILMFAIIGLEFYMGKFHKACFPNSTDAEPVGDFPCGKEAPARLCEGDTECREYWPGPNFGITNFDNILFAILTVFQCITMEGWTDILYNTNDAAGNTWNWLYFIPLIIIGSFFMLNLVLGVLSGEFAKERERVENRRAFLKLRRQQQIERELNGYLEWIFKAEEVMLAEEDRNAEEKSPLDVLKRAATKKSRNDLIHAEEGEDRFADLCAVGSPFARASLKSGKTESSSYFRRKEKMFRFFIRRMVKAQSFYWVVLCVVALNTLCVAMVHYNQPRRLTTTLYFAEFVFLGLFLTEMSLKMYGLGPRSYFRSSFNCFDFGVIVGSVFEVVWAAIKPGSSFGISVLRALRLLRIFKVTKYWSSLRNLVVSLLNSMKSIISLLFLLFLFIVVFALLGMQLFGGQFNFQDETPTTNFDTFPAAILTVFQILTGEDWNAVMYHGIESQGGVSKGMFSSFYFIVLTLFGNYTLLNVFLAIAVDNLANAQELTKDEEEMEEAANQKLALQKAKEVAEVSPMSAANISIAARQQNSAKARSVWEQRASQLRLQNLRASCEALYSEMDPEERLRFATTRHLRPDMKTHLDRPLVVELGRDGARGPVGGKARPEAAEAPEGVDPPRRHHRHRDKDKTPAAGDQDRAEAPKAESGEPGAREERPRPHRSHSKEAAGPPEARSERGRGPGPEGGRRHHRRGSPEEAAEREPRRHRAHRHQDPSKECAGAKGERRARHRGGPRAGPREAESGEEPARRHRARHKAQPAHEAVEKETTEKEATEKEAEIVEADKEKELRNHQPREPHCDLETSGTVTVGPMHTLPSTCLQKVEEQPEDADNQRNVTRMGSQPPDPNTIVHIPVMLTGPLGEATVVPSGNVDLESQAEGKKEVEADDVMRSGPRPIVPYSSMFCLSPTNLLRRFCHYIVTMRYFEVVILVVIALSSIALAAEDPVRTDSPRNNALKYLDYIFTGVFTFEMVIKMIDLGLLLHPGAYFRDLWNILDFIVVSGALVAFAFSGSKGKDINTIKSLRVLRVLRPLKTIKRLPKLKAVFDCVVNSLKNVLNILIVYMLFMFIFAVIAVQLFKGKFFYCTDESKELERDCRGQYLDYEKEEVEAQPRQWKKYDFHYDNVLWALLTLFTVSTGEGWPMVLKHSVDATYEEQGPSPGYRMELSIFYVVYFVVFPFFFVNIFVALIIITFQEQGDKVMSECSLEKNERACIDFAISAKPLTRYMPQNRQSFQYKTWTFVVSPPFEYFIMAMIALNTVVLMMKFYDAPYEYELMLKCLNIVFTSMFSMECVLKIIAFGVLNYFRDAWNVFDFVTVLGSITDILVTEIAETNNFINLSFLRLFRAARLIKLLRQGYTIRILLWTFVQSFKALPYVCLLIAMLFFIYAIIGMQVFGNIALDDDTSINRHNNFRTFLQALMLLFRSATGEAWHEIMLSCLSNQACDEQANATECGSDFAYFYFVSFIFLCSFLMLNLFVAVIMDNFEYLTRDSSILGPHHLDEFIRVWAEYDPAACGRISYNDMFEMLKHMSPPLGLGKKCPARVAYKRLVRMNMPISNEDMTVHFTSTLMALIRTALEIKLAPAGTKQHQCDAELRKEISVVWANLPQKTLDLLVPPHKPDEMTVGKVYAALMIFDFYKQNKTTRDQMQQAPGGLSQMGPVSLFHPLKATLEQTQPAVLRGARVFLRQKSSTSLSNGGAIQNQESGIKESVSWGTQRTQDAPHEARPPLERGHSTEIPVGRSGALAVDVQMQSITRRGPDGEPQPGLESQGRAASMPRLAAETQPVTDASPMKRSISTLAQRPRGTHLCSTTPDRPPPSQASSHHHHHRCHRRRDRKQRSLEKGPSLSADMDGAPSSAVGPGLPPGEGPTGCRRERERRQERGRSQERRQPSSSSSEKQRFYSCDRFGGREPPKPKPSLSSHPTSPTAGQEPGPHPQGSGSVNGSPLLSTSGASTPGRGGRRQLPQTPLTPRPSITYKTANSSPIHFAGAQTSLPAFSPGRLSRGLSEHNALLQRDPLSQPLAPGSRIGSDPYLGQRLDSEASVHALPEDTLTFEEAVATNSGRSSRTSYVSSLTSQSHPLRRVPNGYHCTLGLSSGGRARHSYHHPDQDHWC
T2 sequence (P54289 25-956 partner limits assumed): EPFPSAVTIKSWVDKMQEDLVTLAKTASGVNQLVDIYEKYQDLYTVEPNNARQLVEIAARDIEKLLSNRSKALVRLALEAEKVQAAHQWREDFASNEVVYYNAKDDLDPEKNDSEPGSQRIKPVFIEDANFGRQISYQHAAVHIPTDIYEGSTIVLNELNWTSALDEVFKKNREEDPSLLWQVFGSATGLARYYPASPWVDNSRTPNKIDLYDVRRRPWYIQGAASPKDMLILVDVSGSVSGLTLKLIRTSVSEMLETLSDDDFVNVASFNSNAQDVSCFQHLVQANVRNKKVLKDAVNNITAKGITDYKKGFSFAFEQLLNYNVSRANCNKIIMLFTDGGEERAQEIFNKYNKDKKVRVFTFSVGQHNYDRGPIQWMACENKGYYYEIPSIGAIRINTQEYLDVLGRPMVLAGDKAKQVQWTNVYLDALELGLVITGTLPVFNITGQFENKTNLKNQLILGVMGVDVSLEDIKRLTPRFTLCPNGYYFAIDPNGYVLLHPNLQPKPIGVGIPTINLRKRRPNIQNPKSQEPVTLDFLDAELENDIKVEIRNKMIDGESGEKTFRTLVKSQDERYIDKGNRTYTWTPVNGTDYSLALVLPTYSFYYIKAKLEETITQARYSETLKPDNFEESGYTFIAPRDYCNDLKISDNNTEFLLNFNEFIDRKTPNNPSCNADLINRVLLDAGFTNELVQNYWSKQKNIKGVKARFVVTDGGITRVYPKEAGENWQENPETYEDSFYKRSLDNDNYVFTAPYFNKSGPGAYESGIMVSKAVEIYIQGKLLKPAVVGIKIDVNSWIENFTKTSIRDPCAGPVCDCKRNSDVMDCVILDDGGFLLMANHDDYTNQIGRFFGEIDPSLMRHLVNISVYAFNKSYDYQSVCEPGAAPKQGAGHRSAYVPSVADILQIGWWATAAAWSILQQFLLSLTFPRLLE
T2 sequence (P54289 957-1103 partner limits assumed): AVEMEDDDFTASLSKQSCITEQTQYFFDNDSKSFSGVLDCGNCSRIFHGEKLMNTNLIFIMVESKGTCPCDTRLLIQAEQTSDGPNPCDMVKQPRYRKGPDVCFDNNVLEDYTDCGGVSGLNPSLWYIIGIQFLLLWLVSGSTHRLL
T2 sequence (P54284 whole entry partner): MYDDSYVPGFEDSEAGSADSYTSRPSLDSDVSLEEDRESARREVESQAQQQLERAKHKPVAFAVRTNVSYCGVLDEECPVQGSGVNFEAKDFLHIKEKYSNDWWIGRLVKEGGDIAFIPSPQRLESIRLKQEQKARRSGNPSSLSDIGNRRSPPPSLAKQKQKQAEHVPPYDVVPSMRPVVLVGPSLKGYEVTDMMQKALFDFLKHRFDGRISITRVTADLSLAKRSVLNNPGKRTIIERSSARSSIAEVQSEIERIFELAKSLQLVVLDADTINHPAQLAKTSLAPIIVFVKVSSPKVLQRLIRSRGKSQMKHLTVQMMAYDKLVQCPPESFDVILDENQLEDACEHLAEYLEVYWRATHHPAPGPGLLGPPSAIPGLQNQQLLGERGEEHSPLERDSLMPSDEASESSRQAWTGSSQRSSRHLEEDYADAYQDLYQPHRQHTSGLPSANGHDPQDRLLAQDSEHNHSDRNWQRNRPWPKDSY
The data set can be described thus: HVA N-type calcium channel FLIPR assay in SH-SY5Y cells. The format is cell-based. The settings on record: 10 µM nifedipine present, n = 3, read-out: IC50 CaV2.2 (HVA CaVs). The method, then: as §1
(§3) SH-SY5Y cells were seeded into 384-well black wall clear bottom plates at a density of 15,000 cells per well, resulting in 90–95% confluence after 24 h. The media were then removed from the wells and replaced with 20 μL of 10% calcium 4 dye (Molecular Devices) in physiological salt solution (PSS) (containing 5.9 mM KCl, 1.4 mM MgCl2, 10 mM HEPES, 1.2 mM NaH2 PO4, 5 mM NaHCO3, 140 mM NaCl, 11.5 mM glucose, and 1.8 mM CaCl2, pH 7.4) with 0.1% BSA. As reported, for N-type calcium channel FLIPR assays the cells were pre-incubated with 10 µM nifedipine added in the dye to ensure full inhibition of L-type calcium responses. For L-type calcium channel FLIPR assays, the cells were pre-incubated with 1 µM CVID added in the dye to ensure full inhibition of N-type calcium responses. Positive control on the first reagent plate contained 15 μL of PSS (0.1% BSA), whereas PSS (0.1% BSA) containing 1 µM CVID and 10 µM nifedipine (final concentration) was used as a negative control. The fluorescence readings were recorded and converted as described previously, and agonist containing 90 mM KCl + 5 mM CaCl2 was used in the second addition.

Data set [5] has as its system CaV1. As to the kind of experiment: HVA L-type calcium channel FLIPR assay in SH-SY5Y cells. In kind it is cell-based, human. The settings on record: 1 µM CVID present, n = 3, read-out: IC50 CaV1 (HVA CaVs). The method, then: as §1, §3
The test system of data set [6] is voltage-gated calcium channels (VGCC). The data set can be described thus: VGCC FLIPR cell-based assays, all channels (overall observation). Set-up: species or system human. The protocol:
as §2, §3

For data set [7], the system named is MCF-7 cells. The data set can be described thus: Cell viability MTT assay, MCF-7. The format is cell-based, human. The conditions noted are these: Homo sapiens, 72 h treatment; for viability at 50 µM: MCF7, 50 µM, n = 4. The method, then:
(§4) Human breast cancer cell line MCF-7 and T-47D, lung cancer cell line A549, and colon cancer cell line HT-29 were cultured under 5% carbon dioxide at 37 °C in DMEM Glutamax (Gibco, Life Technologies) supplemented with 10% (v/v) FBS. They were split in a ratio of 1:3–1:6 (ideally 2–4 × 10,000 cells/cm^2) when they reached 70–80% confluence using 0.25% Trypsin-EDTA. For cell viability MTT assay, cells were seeded into 96-well clear bottom culture plates (Corning, Lowell, MA, USA) at a density of 5 × 10^3 cells/well and settled at 37 °C for 24 h.
(§5) Seeded cells were treated with various concentrations of compounds for desired time period (24, 48 and 72 h). After the treatments, the media were removed from each well, and replaced with 25 μL of serum-free media and 25 μL of MTT Reagent (cat. no., ab211091; Abcam, Cambridge, MA, USA). The plate was then incubated at 37 °C for 3 h, and 75 μL of MTT Solvent (cat. no., ab211091; Abcam) was added into each well after incubation. The absorbance was evaluated at 590 nm. Cell-wells treated with 0.1% DMSO were used as positive control and no cell-wells were used as background control.

For data set [8], the system named is T-47D cells. The data set can be described thus: Cell viability MTT assay, T-47D. The conditions noted are these: Homo sapiens, T47D, 72 h treatment; for viability at 50 µM: n = 4. The format is cell-based, human. The method, then:
as §4, §5

Data set [9] deals with A549 cells. The data set can be described thus: Cell viability MTT assay, A549. The format is cell-based, human. The conditions noted are these: for viability at 50 µM: A549, 50 µM, n = 4. The protocol: as §4, §5
The test system of data set [10] is HT-29 cells. The data set can be described thus: Cell viability MTT assay, HT-29. In kind it is cell-based, human. The settings on record: for viability at 50 µM: HT-29, 50 µM, n = 4; for preferential anti-proliferative activity on HT-29: versus MCF-7, T-47D, A549. The protocol:
as §4, §5

Data set [11] is described as follows: Solubility in assay buffer with 0.1% BSA. In kind it is physicochemical.

The structures appear in SMILES notation.

As for `Cc1ccc(S(=O)(=O)n2cc(C(=O)c3cn(S(=O)(=O)c4ccc(C)cc4)c4ccccc34)c3ccccc32)cc1` [X], the half-inhibitory concentration (IC50) in [1] is 53.4 ± 0.93 µM; in data set [2], 99.9 ± 3.56 µM; in data set [3] it was 78.3 ± 4.79 µM; in data set [4], 54.5 ± 1.84 µM; in [5], 47.9 ± 1.37 µM. In addition, the “inhibition of all the Ca2+ responses” value in data set [6] is “poor inhibition”.
Take `CCOC(=O)C(=O)c1cn(S(=O)(=O)c2ccc(C)cc2)c2ccccc12` [VII]: the half-inhibitory concentration (IC50) in data set [1] worked out at 43.5 ± 3.72 µM; in [2], 17.1 ± 1.87 µM; in [3] it was 13.8 ± 2.02 µM; in [4], 32.1 ± 3.01 µM; in data set [5], 32.1 ± 0.84 µM.
Take `O=C(c1c[nH]c2ccccc12)c1cn(S(=O)(=O)O)c2ccccc12` [III]: the IC50 in data set [1] amounted to 58.8 ± 6.85 µM; in data set [2] it was 106 ± 11.8 µM; in [3] it was 17.8 ± 4.64 µM; in [4], 60.9 ± 3.37 µM; in data set [5], 192 ± 30.5 µM. Besides, in data set [3], the “inhibition against CaV3.3” value was “moderate inhibition”. The viability at 50 µM was determined as 84.9 ± 5.75% in data set [7]; 79.7 ± 3.74% in [8]; 211 ± 4.69% in data set [9] (Homo sapiens, 72 h treatment); 21.6 ± 1.1% in data set [10] (Homo sapiens, 72 h treatment). Also, in [9] (50 µM, 72 h), the “effect on A549 cell proliferation” value was “promoted A549 cell proliferation”. In addition, in data set [10], the “preferential anti-proliferative activity on HT-29” value was “preferential anti-proliferative activity”.
Regarding `CCOC(=O)C(=O)c1c[nH]c2ccccc12` [VI], the 50% inhibitory concentration (IC50) is 154 ± 18.1 µM in data set [1]; over 200 µM in data set [2]; over 200 µM in data set [3]; 53.8 ± 2.43 µM in data set [4]; over 200 µM in [5]. The “inhibition of all the Ca2+ responses” value in data set [6] was “poor inhibition”.
With `O=C(c1c[nH]c2cc(Br)ccc12)c1cn(S(=O)(=O)O)c2cc(Br)ccc12` [V], the half-maximal inhibitory concentration (IC50) came to 92.1 ± 4.69 µM in data set [1]; 67.5 ± 6.05 µM in data set [2]; 92.6 ± 1.46 µM in data set [3]; 90.2 ± 4.93 µM in data set [4]; 88.2 ± 7.95 µM in data set [5]; 51 µM in [7] (MCF7, 72 h, n = 3). Moreover, the 50% inhibitory concentration (IC50) came to 38 µM in data set [8] (72 h, n = 3); 27 µM in data set [9] (Homo sapiens, A549, 72 h, 72 h treatment, n = 3); 15 µM in data set [10] (Homo sapiens, HT-29, 72 h, 72 h treatment, n = 3). The viability at 50 µM in data set [7] amounted to 29.52 ± 0.19%; in [8], 31.4 ± 0.43%; in [9] (Homo sapiens, 72 h treatment), 14.1 ± 0.15%; in [10] (Homo sapiens, 72 h treatment) it was 0.93 ± 0.06%. Besides, the “better antiproliferative effect on HT-29 cell viability than on the other three cancer cell lines” value in data set [10] (72 h treatment) was at least 2 fold. The “preferential anti-proliferative activity on HT-29” value in data set [10] is listed as “preferential anti-proliferative activity”. Further, in [6], the “inhibition of all the Ca2+ responses” value is on record as “poor inhibition”.
As to `O=C(c1cn(S(=O)(=O)O)c2ccccc12)c1cn(S(=O)(=O)O)c2ccccc12` [XI, 3,3'-carbonylbis(1H-indole-1-sulfonic acid)], the “solubility in buffer” value in [11] is on record as “highly insoluble”.

The values are drawn from article PMC9412534, “Diindolylmethane Derivatives: New Selective Blockers for T-Type Calcium Channels” (Membranes, 2022).
